This note sets out measurements from US7524823B2, “Macrolides” (Basilea Pharmaceutica AG, priority 2005, dated 2009).

SMILES strings stand for the structures. Converted amounts (≈) assume the structure as drawn. Like-named read-outs stand apart in the source and are kept apart here.

Assay type in all cases: cell-based
Test [1] deals with Escherichia coli ATCC 25922. Briefly: MIC by broth microdilution (CAMHB, NCCLS). The following applies: code C: Escherichia coli ATCC 25922. Summed up:
(§1)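 Minimal inhibitory concentrations, in μg/ml, come from NCCLS broth microdilution in cation-adjusted Mueller-Hinton broth. Streptococcus pneumoniae strains received 5% (v/v) horse serum supplement instead of laked horse blood.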
(Broth dilution looks for growth in wells or tubes with falling amounts of substance.)

In test [2] the test system is Staphylococcus aureus 1086. Briefly: MIC by broth microdilution (CAMHB, NCCLS). Conditions: code B: Staphylococcus aureus 1086. Summed up:
as §1

In test [3] the test system is Staphylococcus aureus ATCC 29213. As to the kind of experiment: MIC by broth microdilution (CAMHB, NCCLS). The following applies: code A: Staphylococcus aureus ATCC 29213. Summed up:
as §1

The subject of test [4] is Streptococcus pneumoniae 1/1. Briefly: MIC by broth microdilution (CAMHB + 5% horse serum, NCCLS). The following applies: code D: Streptococcus pneumoniae 1/1. Summed up:
as §1

Test [5] has as its system Streptococcus pneumoniae SL199T. The test is described as above. The following applies: code E: Streptococcus pneumoniae SL199T. The gist of the method:
as §1

The subject of test [6] is Streptococcus pneumoniae Tupelo. The description is as above. Conditions: code F: Streptococcus pneumoniae Tupelo. The gist of the method:
as §1

Test [7] has as its system Haemophilus influenzae 12214. Briefly: MIC by broth microdilution (CAMHB + 5% Fildes enrichment, NCCLS). Summed up: as §1
Test [8] deals with Haemophilus influenzae QK50. The test is described as above. The gist of the method: as §1
Test [9] deals with Propionibacterium acnes EG7NS. As to the kind of experiment: MIC by anaerobic broth microdilution (WCB, NCCLS). The following applies: code I: Propionibacterium acnes EG7NS, anaerobic, 35-37° C., 48 h. Summed up:
(§2)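 Anaerobic broth microdilution in WCB (Anaerobe Broth MIC) per NCCLS M11-A5, in jars reaching O2 <0.1% by 2.5 h and CO2 >15% by 24 h. MICs read after 48 h at 35-37° C.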

For test [10], the system named is Propionibacterium acnes SW101T. Briefly: MIC by anaerobic broth microdilution (WCB, NCCLS). The following applies: code K: Propionibacterium acnes SW101T, 35-37° C., 48 h. Summed up: as §2
In another test the test system is Human neutrophils. As to the kind of experiment: Modulation of neutrophil elastase production. The following applies: test compound 50 μM; fMLP 0.1 μM, cytochalasin B 5 mg/L; blood from 3 donors. The source says: The neutrophil granulocyte is a key element of the inflammatory process. The neutrophils migrate to the site of inflammation and can be activated to release toxic products, including proteolytic enzymes such as elastase. […] Elastase is a major secreted product of activated neutrophils and is a major contributor to the destruction of tissue in inflammatory disease. Several bioassays based on the repression of secretion of elastase, have been described and used for the detection of anti-inflammatory products (Johansson, […]. Nat. Prod. 65: 32-41). […] The neutrophils are activated by addition of the bacterial product N-formyl methionyl-leucyl-phenylalanine (fMLP) and cytochalasin B, a stimulator of secretion. The amount of elastase secreted is determined by measuring the reaction of elastase with the chromogenic substrate succinyl-alanyl-alanyl-valyl-nitroanilide ([…]), which generates 4-nitroaniline after cleavage by elastase. […] Human neutrophils are isolated by applying whole heparinized blood to a Histopaque column and collecting the granulocytes by centrifugation. […] The total volume of the reaction mixture is 0.8 mL and concentrations specified are the final concentrations in the mixture. […] Neutrophil preparations from blood from 3 different donors were used in parallel. All samples were measured in duplicate. Results are given as % repression of activation of neutrophils in the following Table 5.

The mark [11] stands for this setting: Cutibacterium acnes, read-out: MIC.

Regarding `CC[C@H]1OC(=O)[C@H](C)[C@@H](O[C@H]2C[C@@](C)(OC)[C@@H](O)[C@H](C)O2)[C@H](C)[C@@H](O[C@@H]2O[C@H](C)C[C@H](N(C)C)[C@H]2O)[C@](C)(OC)C[C@@H](C)C(=O)[C@H](C)[C@H]2[C@H](SCCn3cnc4cccnc43)C(=O)O[C@@]21C` [Example 4, (3S, 3aR, 4R, 6R, 8R, 9R, 10S, 11S, 12R, 15R, 15aS)-11-[[2,6-dideoxy-3-C-methyl-3-O-methyl-α-L-ribo-hexopyranosyl]oxy]-15-ethyldecahydro-8-methoxy-4,6,8,10,12,15a-hexamethyl-3-[[2-[3H-imidazo[4,5-b]pyridin-3-yl]ethyl]thio]-9-[[3,4,6-trideoxy-3-(dimethylamino)-β-D-xylo-hexopyranosyl]oxy]-2H-furo [2,3-c] oxacyclotetradecin-2,5,13 (3H,6H)-trione], the MIC in [1] (ATCC25922, read-out: MIC) was 32 µg/mL (≈ 33.7 µM); in test [2] (read-out: MIC) it was at least 32 µg/mL; in test [3] (ATCC29213, read-out: MIC) it was 1 µg/mL (≈ 1.05 µM); in [4] (read-out: MIC) it was at most 0.06 µg/mL; in test [5] (read-out: MIC), 0.5 µg/mL; in [6] (read-out: MIC), 0.5 µg/mL. The MIC worked out at 2 µg/mL in test [7] (Haemophilus influenzae, 12214); 2 µg/mL in test [8] (Haemophilus influenzae, QK50); 0.125 µg/mL (≈ 0.132 µM) in test [9] (setting [11]); 4 µg/mL (≈ 4.21 µM) in test [10] (setting [11]). Besides, the “Average repression of activation (%)” value in the test on Human neutrophils amounted to 31 ± 2.4%.

Turning to `CC[C@H]1OC(=O)[C@H](C)[C@@H](O[C@H]2C[C@@](C)(OC)[C@@H](O)[C@H](C)O2)[C@H](C)[C@@H](O[C@@H]2O[C@H](C)C[C@H](N(C)C)[C@H]2O)[C@](C)(OC)C[C@@H](C)C(=O)[C@H](C)[C@H]2[C@H](SCCn3cnc4c(N)nc(N)nc43)C(=O)O[C@@]21C` [Example 11], the MIC result in [1] was “>=32 μg/ml”; in test [2], “>=32 μg/ml”; in [3], 8 µg/mL (≈ 8.16 µM); in test [4], “<=0.06 μg/ml”; in test [5], 0.125 µg/mL; in [6], 1 µg/mL. Moreover, the MIC in test [7] (code G: Haemophilus influenzae 12214) is 2 µg/mL; in test [8] (code H: Haemophilus influenzae QK50) it was 2 µg/mL; in [9], “<=0.06 μg/ml”; in [10], 2 µg/mL (≈ 2.04 µM). Further, the “Average repression of activation (%)” value with Human neutrophils is on record as 20 ± 0.97%.
